As usually defined, the IC50 is the concentration needed to halve the response being measured. For orientation: GI50 means the concentration giving 50% growth inhibition.

We go through seven compounds from ChEMBL document CHEMBL5376010, “Formation of Trideuteromethylated Artifacts of Pyrrole-Containing Natural Products” (J Nat Prod, 2024).

Series [1] deals with Panel NCI-60 (60 carcinoma cell lines). As to the kind of experiment: Anticancer activity against human Panel NCI-60 (60 carcinoma cell lines) assessed as cell growth inhibition at 10 uM. In kind it is functional, cell-based.
Series [2] can be described thus: Anticancer activity against human WaGa cells assessed as inhibition of cell growth. The class given is functional, cell-based.
Series [3] in a line: Anticancer activity against human MKL-1 cells assessed as inhibition of cell growth. In kind it is functional, cell-based.
In series [4] the test system is Panel NCI-60 (60 carcinoma cell lines). As to the kind of experiment: Anticancer activity against human Panel NCI-60 (60 carcinoma cell lines) assessed as growth inhibition. The class given is functional.
The nature of series [5]: Anticancer activity against human UISO cells assessed as inhibition of cell growth. In kind it is functional, cell-based.
Series [6] in a line: Cytotoxicity against human HaCaT cells assessed as inhibition of cell growth. In kind it is toxicity, cell-based.
A short description of series [7]: Anticancer activity against human MCC13 cells assessed as inhibition of cell growth. The class given is functional, cell-based.
The nature of series [8]: Anticancer activity against human MCC26 cells assessed as inhibition of cell growth. The class given is functional, cell-based.
The species named for series [9] is Homo sapiens. As to the kind of experiment: Selectivity ratio of IC50 for human HaCaT cells to IC50 for human MKL-1 cells. The settings on record: tested as the 2H-labelled form.
For series [10], the species on record is Homo sapiens. In words: Selectivity ratio of IC50 for human HaCaT cells to IC50 for human MCC13 cells. The conditions noted are these: tested as the 2H-labelled form.
The species entered for series [11] is Homo sapiens. As to the kind of experiment: Selectivity ratio of IC50 for human HaCaT cells to IC50 for human UISO cells. The settings on record: tested as the 2H-labelled form.
The species named for series [12] is Homo sapiens. As to the kind of experiment: Selectivity ratio of IC50 for human HaCaT cells to IC50 for human WaGa cells. The settings on record: tested as the 2H-labelled form.
The species named for series [13] is Homo sapiens. In words: Selectivity ratio of IC50 for human HaCaT cells to IC50 for human MCC26 cells. The settings on record: tested as the 2H-labelled form.

The source made the active and inactive calls. No cut-off for these calls is given here.

As to `Cc1[nH]c2c3c1CC[N+]1=C3C3=C(N[C@@H]4C[C@@]35C(=CC(=O)[C@@H]1[C@@H]5Sc1ncn(C)c1C[C@H](N)C(=O)O)S4)C2=O`, the result in [1] (tested as the 2H-labelled form) was inactive.
For `O=C([O-])C(F)(F)F.[2H]C([2H])([2H])c1[nH]c2c3c1CC[N+]1=C3C3=C(N[C@@H]4C[C@@]35C(=CC(=O)[C@@H]1[C@@H]5O)S4)C2=O`, the half-inhibitory concentration (IC50) in series [2] was 720 nM; in series [3], 250 nM; in series [5] it was 1410 nM; in series [6] it was 6200 nM; in [7] it was 2500 nM; in [8] it was 1990 nM. For the same compound, the 50% growth inhibitory concentration (GI50) in series [4] was found to be 1650 nM.
As to `O=C1C(Br)=CC2(C=C1Br)CCNC1=C2C2=NCCc3c(Br)[nH]c(c32)C1=O`, the GI50 in [4] amounted to 420 nM.
Turning to `Cn1cnc(S[C@H]2[C@H]3C(=O)C=C4S[C@H]5C[C@]42C2=C(N5)C(=O)c4[nH]cc5c4C2=[N+]3CC5)c1C[C@H](N)C(=O)O`, the outcome in series [1] was inactive.
Turning to `O=C1C(Br)=CC2(C=C1Br)CCNC1=C2C2=NCCc3c[nH]c(c32)C1=O` [DISCORHABDIN C], the concentration for 50% growth inhibition (GI50) in [4] worked out at 130 nM.
The same measure, in the same setting: for `O=C1C2=C3C4=[N+](CCc5c[nH]c1c54)[C@@H]1C(=O)C=C4S[C@@H](C[C@@]43[C@H]1O)N2` [DISCORHABDIN L] the value was 790 nM.
`Cc1[nH]c2c3c1CC[N+]1=C3C3=C(N[C@@H]4C[C@@]35C(=CC(=O)[C@@H]1[C@@H]5O)S4)C2=O`: the Ratio IC50 in the series filed under Homo sapiens [9] was determined as 13; in the series filed under Homo sapiens [10] it was 3; in the series listed under Homo sapiens [11], 3; in the series listed under Homo sapiens [12], 13; in the series filed under Homo sapiens [13], 3. For the same compound, in series [4], the GI50 came to 5750 nM.
